For experiment [1], the system named is SOD1(G93A) ALS-mouse model. To be noted: Wang et al. 2005; cited from earlier work.
Experiment [2] relates to SOD1(G93A) transgenic mouse model of ALS. To be noted: both gender; for Age of Disease Onset, Mean age / Age of First Paresis, Mean age / Disease Endstage - Survival, Mean age: treatment from day 45; for Age of Disease Onset, Mean age: riluzole 35 mg/kg day and neramexane (dosage adapted to gender, 50 male/150 female) in drinking water, memantine 20 mg/kg day s.c.; for Age of First Paresis, Mean age / Disease Endstage - Survival, Mean age: same doses as Table 1; for Age of Disease Onset, Difference compared to control: versus vehicle control mean 106.6; for Age of First Paresis, Difference compared to control: versus vehicle control mean 119.7; for Disease Endstage - Survival, Difference compared to control: versus vehicle control mean […].

Experiment [3] shares this test system. Put plainly: Motor performance in the running wheel, SOD1(G93A) ALS mouse model. To be noted: for Disease Progression (Rev's per 12 hours/day) / Half Maximum Performance / Presymptomatic Performance (Rev's per 12 hours): both gender; for Half Maximum Performance, Difference: versus vehicle control 106.1; for Presymptomatic Performance, Difference (rp 12 hours): versus vehicle control 19,518; for Disease Progression, Difference: versus vehicle control −17.862. It is filed as in vivo. As for the experimental part: Drug treatment starts at day 45.
Memantine is supplied by MERZ pharmaceuticals. […] Drugs are dissolved in drinking water. […] Memantine is administered twice a day subcutaneously.
Consumption of drinking water is checked randomly.
4. Motor Performance in the running wheel

With `CC12CC3CC(C)(C1)CC(N)(C3)C2` [Memantine], the “Effects regarding disease progression and survival” value in experiment [1] is “positive effects”. Further, in experiment [2], the “Age of Disease Onset, Median age” value is listed as 107.5 days; the “Age of First Paresis, Median age” value is recorded as 123.0 days; the “Disease Endstage - Survival, Median age” value is 134.0 days; the “Age of Disease Onset, Mean age” value came out at 108.5 days. Further, in experiment [2], the “Age of First Paresis, Mean age” value was 123.7 days; the “Disease Endstage - Survival, Mean age” value was found to be 134.4 days; the “Age of Disease Onset, Difference compared to control” value (shortened to “Age of Disease Onset, Difference”) came to 1.9 days; the “Age of First Paresis, Difference compared to control” value (from here on “Age of First Paresis, Difference”) was determined as 4.0 days. For the same compound, the “Disease Endstage - Survival, Difference compared to control” value in experiment [2] came to 5.1 days. Moreover, in experiment [3], the “Disease Progression (Rev's per 12 hours/day)” value was −22.528 Rev's per 12 hours/day; the “Half Maximum Performance” value was determined as 110.5 days; the “Presymptomatic Performance (Rev's per 12 hours)” value is recorded as 10,784 Rev's per 12 hours; the “Half Maximum Performance, Difference” value is 4.4 days. In experiment [3], the “Presymptomatic Performance, Difference (rp 12 hours)” value is −8,734 rp 12 hours and the “Disease Progression, Difference” value is recorded as −4.666.

As for `CC1(C)CC(C)(C)CC(C)(N)C1` [Neramexane, 1-amino-1,3,3,5,5-pentamethylcyclohexane], in experiment [2], the “Age of Disease Onset, Median age” value was 107.0 days; the “Age of First Paresis, Median age” value came to 124.0 days; the “Disease Endstage - Survival, Median age” value turned out to be 135.0 days; the “Age of Disease Onset, Mean age” value came out at 107.8 days. Also, in experiment [2], the “Age of First Paresis, Mean age” value is listed as 123.7 days; the “Disease Endstage - Survival, Mean age” value is given as 135.1 days; the “Age of Disease Onset, Difference” value was found to be 1.2 days; the “Age of First Paresis, Difference” value worked out at 4.0 days. For the same compound, the “Disease Endstage - Survival, Difference compared to control” value in experiment [2] is recorded as 5.8 days. In experiment [3], the “Disease Progression (Rev's per 12 hours/day)” value is −16.108 Rev's per 12 hours/day; the “Half Maximum Performance” value is 109.2 days; the “Presymptomatic Performance (Rev's per 12 hours)” value is on record as 21,096 Rev's per 12 hours; the “Half Maximum Performance, Difference” value was 3.1 days. For the same compound, in experiment [3], the “Presymptomatic Performance, Difference (rp 12 hours)” value is 1,578 rp 12 hours and the “Disease Progression, Difference” value came out at 1.754.

For the compound `Nc1nc2ccc(OC(F)(F)F)cc2s1` [Riluzole, 2-amino-6-trifluromethoxybenzothiazole], in experiment [2], the “Age of Disease Onset, Median age” value was 105.0 days; the “Age of First Paresis, Median age” value amounted to 119.0 days; the “Age of Disease Onset, Mean age” value turned out to be 106.3 days; the “Age of First Paresis, Mean age” value was 120.0 days. In experiment [2], the “Age of Disease Onset, Difference” value was -0.3 days and the “Age of First Paresis, Difference” value is recorded as 0.3 days. In experiment [3], the “Disease Progression (Rev's per 12 hours/day)” value was −14.015 Rev's per 12 hours/day; the “Presymptomatic Performance (Rev's per 12 hours)” value is reported as 20,565 Rev's per 12 hours; the “Presymptomatic Performance, Difference (rp 12 hours)” value is recorded as 1,047 rp 12 hours; the “Disease Progression, Difference” value came out at 3.847.

Values taken from patent publication US20100190751A1, “NOVEL COMBINATION OF NERAMEXANE FOR TREATMENT OF NERORDEGENERATIE DISORDERS” (MERZ PHARMA GmbH & CO. KGaA, priority 2007, published 2010).
